The results in this text go back to patent publication US4419447A, “Fermentation process for producing demycinosyltylosin” (Eli Lilly and Company, priority 1981, dated 1983).

For data set [1], the system named is Streptomyces fradiae E2724.1. The experiment in a line: Antibiotic sensitivity of S. fradiae E2724.1 (sensitivity discs on seeded agar plates). In kind it is cell-based. From the text:
(§1) ^a Determined by using sensitivity discs padded onto seededagar

Data set [2] concerns Streptomyces fradiae NRRL 12170. The experiment in a line: Antibiotic sensitivity of S. fradiae NRRL 12170 (sensitivity discs on seeded agar plates). In kind it is cell-based.
Source text: as §1

The subject of data set [3] is gram-positive microorganisms and Mycoplasma species. Briefly: Inhibition of growth of pathogenic bacteria (general statement). In kind it is cell-based. From the text:
(§2) Table 8 summarizes the minimal inhibitory concentrations (MIC), as measured by standard agar-dilution assays, at which DMT (free base) inhibits certain bacteria.

Another data set in a line: physchem. The data set is classed as physicochemical. The conditions noted are these: 66% aqueous dimethylformamide.
Data set [4] is classed as physicochemical. From the text: DMT base is soluble in water and in most polar organic solvents, such as acetone, methanol, ethanol, chloroform, dimethylformamide and dimethyl sulfoxide. DMT acid addition salts are more soluble in water than is DMT base.
The subject of data set [5] is Mycoplasma gallisepticum. Briefly: In vitro activity, standard agar-dilution assay. The data set is classed as cell-based. The conditions noted are these: Mycoplasmoides gallisepticum.
Source text: as §2

The test system of another data set is Mycoplasma hyopneumoniae. Briefly: In vitro activity, standard agar-dilution assay. In kind it is cell-based. The conditions noted are these: Mesomycoplasma hyopneumoniae.
Source text: as §2

The subject of the next data set is Mycoplasma hyorhinis. Briefly: In vitro activity, standard agar-dilution assay. In kind it is cell-based.
Source text: as §2

For a further data set, the system named is Pasteurella hemolytica. The experiment in a line: In vitro activity, standard agar-dilution assay. The data set is classed as cell-based.
Source text: as §2

Another data set relates to Pasteurella multocida. The experiment in a line: In vitro activity, standard agar-dilution assay. The data set is classed as cell-based.
Source text: as §2

Data set [6] relates to Staphylococcus aureus 209P. Briefly: In vitro activity, standard agar-dilution assay. In kind it is cell-based.
Source text: as §2

Data set [7] relates to Staphylococcus aureus 3055. Briefly: In vitro activity, standard agar-dilution assay. The data set is classed as cell-based.
Source text: as §2

In data set [8] the test system is Streptococcus pneumoniae Park I. Briefly: In vitro activity, standard agar-dilution assay. In kind it is cell-based.
Source text: as §2

Data set [9] concerns Streptococcus pyogenes C203. Briefly: In vitro activity, standard agar-dilution assay. The data set is classed as cell-based.
Source text: as §2

Data set [10] relates to Streptococcus sp. (Group D) 282. The experiment in a line: In vitro activity, standard agar-dilution assay. The data set is classed as cell-based.
Source text: as §2

Data set [11] concerns Streptococcus pyogenes C203. The experiment in a line: Experimental infection in mice. Conditions: two doses. In kind it is in vivo.
Data set [12] relates to Streptococcus pneumoniae Park I. Briefly: Experimental infection in mice. The data set is classed as in vivo.
For data set [13], the system named is Staphylococcus aureus 3055. Briefly: Experimental infection in mice. The data set is classed as in vivo. The conditions noted are these: two doses.
Data set [14] deals with Mycoplasma gallisepticum. Briefly: Treatment of induced Mycoplasma gallisepticum infection in chicks with DMT base. The conditions noted are these: infected control 304. The data set is classed as in vivo. Here is the method:
(§3) Activity against Mycoplasma species is an especially useful aspect of the DMT compounds. Tables 10 and 11 summarize experiments using DMT and DMT tartrate for the treatment of induced Mycoplasma gallisepticum infections in chickens. The compounds were administered in the drinking water (at 1 and 2 grams per gallon for 1 to 3 days) or by injection at 15 or 30 mg/kg of body weight.

Data set [15] is described as follows: Acute toxicity of DMT in mice. Conditions: mouse, in vivo. The text has this: In these studies, 4- to 5-week-old Harlan ICR mice were used. […]
For data set [16], the system named is Mycoplasma gallisepticum. The experiment in a line: Treatment of induced Mycoplasma gallisepticum infection in chicks with DMT tartrate. In kind it is in vivo. The conditions noted are these: infected control 231. As for the experimental part:
as §3

Where [17] appears, read: 1.0 g/gal, 1-3 days, drinking water.
Where [18] appears, read: 2.0 g/gal, 1-3 days, drinking water.

Molecules are shown by their SMILES. ≈ marks a conversion by molar mass, not a printed value. Structures can show the parent of a compound that is named as a salt. Where two headings read alike, the source gives them in different places.

For `CN(C)[C@@H]1C(O)=C(C(N)=O)C(=O)[C@@]2(O)C(O)=C3C(=O)c4c(O)cccc4[C@@](C)(O)[C@H]3C[C@@H]12` [Tetracycline], the “Antibiotic Sensitivity” value in [1] (disc conc. 30 μg) and in data set [2] (disc conc. 30 μg) was “+” each time.
In the case of `O=C(Cc1cccs1)N[C@@H]1C(=O)N2C(C(=O)[O-])=C(C[n+]3ccccc3)CS[C@H]12` [Cephaloridine], the “Antibiotic Sensitivity” value in [1] (disc conc. 30 μg) and in [2] (disc conc. 30 μg) was “+” in each case.
Regarding `CCC1OC(=O)CC(O)C(C)C(OC2OC(C)C(OC3CC(C)(O)C(O)C(C)O3)C(N(C)C)C2O)C(CCO)CC(C)C(=O)C=CC(C)=CC1CO` (stereo not shown) [dihydro-DMT, 20-dihydro-23-demycinosyltylosin], in data set [3], the “inhibition of growth of pathogenic organisms” value is “especially active against gram-positive microorganisms and Mycoplasma species”.
For the molecule `CCC[C@@H]1C[C@@H](C(=O)N[C@@H]([C@H]2O[C@H](SC)[C@H](O)[C@@H](O)[C@H]2O)[C@@H](C)O)N(C)C1` [Lincomycin], the “Antibiotic Sensitivity” value in data set [1] (disc conc. 2 μg) and in [2] (disc conc. 2 μg) was “-” throughout.
As for `CCC1OC(=O)CC(O)C(C)C(OC2OC(C)C(OC3CC(C)(O)C(O)C(C)O3)C(N(C)C)C2O)C(CC=O)CC(C)C(=O)C=CC(C)=CC1CO` (stereo not shown) [DMT, 23-demycinosyltylosin], the pKa in the data set “physchem” was about 7.25. The “solubility in most polar organic solvents” value in [4] is on record as “soluble”. Also, the solubility in water entry in [4] is “soluble”. For the same molecule, the “inhibition of growth of pathogenic organisms” value in data set [3] is “especially active against gram-positive microorganisms and Mycoplasma species”. Further, the MIC worked out at 0.097 µg/mL (≈ 0.131 µM) in the data set on Mycoplasma gallisepticum [5]; 0.195 µg/mL (≈ 0.263 µM) against Mycoplasma hyopneumoniae; 0.78 µg/mL (≈ 1.05 µM) in the data set on Mycoplasma hyorhinis; 12.5 µg/mL (≈ 16.8 µM) with Pasteurella hemolytica; 3.12 µg/mL (≈ 4.21 µM) against Pasteurella multocida; 0.25 µg/mL (≈ 0.337 µM) in data set [6]. Moreover, the MIC turned out to be 1 µg/mL (≈ 1.35 µM) in [7], 0.13 µg/mL (≈ 0.175 µM) in data set [8], 0.25 µg/mL (≈ 0.337 µM) in data set [9] and 0.5 µg/mL (≈ 0.674 µM) in [10]. Moreover, the ED50 in data set [11] (Streptococcus pyogenes, C203, po, oral, challenge 11.3 × LD50, read-out: ED50) turned out to be 218 mg/kg; in data set [11] (Streptococcus pyogenes, C203, sc, subcutaneous, challenge 13 × LD50, read-out: ED50), 2.2 mg/kg; in data set [12] (po, two doses, challenge 2.7 × LD50) it was 66 mg/kg; in data set [12] (sc, subcutaneous, two doses, challenge 3 × LD50) it was 15.7 mg/kg; in [13] (Staphylococcus aureus, 3055, sc, subcutaneous, challenge 21 × LD50), 2.7 mg/kg; in data set [13] (Staphylococcus aureus, 3055, oral, challenge 26 × LD50), 64 mg/kg. Moreover, the “Avg. Wt.” value in the data set with Mycoplasma gallisepticum [14] (15 mg/kg, injection) is 453 g; with Mycoplasma gallisepticum [14] (setting [17]), 392 g; in the data set with Mycoplasma gallisepticum [14] (setting [18]) it was 397 g. The LD50 was 325 mg/kg in data set [15] (ip, females); 721 mg/kg in data set [15] (ip, males); 186 mg/kg in data set [15] (iv, females); 100 mg/kg in data set [15] (iv, males); over 5000 mg/kg in data set [15] (po, females); 5450 mg/kg in data set [15] (sc, females).
Turning to `CCC1OC(=O)CC(O)C(C)C(OC2OC(C)C(OC3CC(C)(O)C(O)C(C)O3)C(N(C)C)C2O)C(CC=O)CC(C)C(=O)C=CC(C)=CC1CO` (stereo not shown) [DMT Tartrate], the ED50 in data set [11] (oral, challenge 11.3 × LD50) is 172 mg/kg × 2; in data set [11] (subcutaneous, challenge 13 × LD50), 2.3 mg/kg × 2; in data set [12] (po), 100 mg/kg; in [12] (sc) it was at most 9.9 mg/kg. Also, the “Avg. Wt.” value with Mycoplasma gallisepticum [16] (30 mg/kg, injection) amounted to 330 g; with Mycoplasma gallisepticum [16] (setting [17]) it was 354 g; in the data set on Mycoplasma gallisepticum [16] (setting [18]) it was 458 g.
For `O=C(N[C@H](CO)[C@H](O)c1ccc([N+](=O)[O-])cc1)C(Cl)Cl` [Chloramphenicol], the “Antibiotic Sensitivity” value in data set [1] (disc conc. 30 μg) and in data set [2] (disc conc. 30 μg) was “+” each time.
`CN[C@H](CC(C)C)C(=O)N[C@H]1C(=O)N[C@@H](CC(N)=O)C(=O)N[C@H]2C(=O)N[C@H]3C(=O)N[C@H](C(=O)N[C@H](C(=O)O)c4cc(O)cc(O)c4-c4cc3ccc4O)[C@H](O)c3ccc(c(Cl)c3)Oc3cc2cc(c3O[C@@H]2O[C@H](CO)[C@@H](O)[C@H](O)[C@H]2O[C@H]2C[C@](C)(N)[C@H](O)[C@H](C)O2)Oc2ccc(cc2Cl)[C@H]1O` [Vancomycin]: the “Antibiotic Sensitivity” value in data set [1] (disc conc. 30 μg) and in data set [2] (disc conc. 30 μg) was “+” in each case.
As to `[H]/N=C(/N)N[C@H]1[C@H](O)[C@@H](O)[C@H](O[C@@H]2O[C@@H](C)[C@](O)(C=O)[C@H]2O[C@@H]2O[C@@H](CO)[C@H](O)[C@@H](O)[C@@H]2NC)[C@@H](N/C(N)=N\[H])[C@@H]1O` [Streptomycin], the “Antibiotic Sensitivity” value in data set [1] (disc conc. 10 μg) and in [2] (disc conc. 10 μg) was “+” each time.
